The record followed here is publication PMC7791547, “Biochemical characterization of an E. coli cell division factor FtsE shows ATPase cycles similar to the NBDs of ABC-transporters” (Bioscience Reports, 2021).

Test [1] concerns the target T1, FtsE (FtsEEc) (Escherichia coli, UniProt P0A9R7, K41A).
T1 construct: ftsE ORF in His-pBAD18; His-tagged, soluble, expressed in E. coli C41; Ni-NTA and two SEC rounds
Put plainly: MANT-ATP fluorescence binding. The following applies: labelled compound; 25 mM HEPES pH 7.5, 50 mM KCl, 10 mM MgCl2; Walker A mutant.

In test [2] the target is T2, FtsE (FtsEEc) (Escherichia coli, UniProt P0A9R7).
T2 construct: ftsE ORF in His-pBAD18; His-tagged, soluble, expressed in E. coli C41; Ni-NTA and two SEC rounds
T2 sequence (P0A9R7 1-222): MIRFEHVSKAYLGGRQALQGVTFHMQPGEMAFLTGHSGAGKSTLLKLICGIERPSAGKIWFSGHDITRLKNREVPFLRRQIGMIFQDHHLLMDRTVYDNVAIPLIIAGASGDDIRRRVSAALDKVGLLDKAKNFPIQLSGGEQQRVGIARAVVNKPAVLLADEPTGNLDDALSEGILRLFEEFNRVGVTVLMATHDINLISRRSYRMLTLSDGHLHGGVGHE
Briefly: fluorescence titration, double reciprocal plot. Format: binding.

T1 sequence (P0A9R7 whole entry K41A): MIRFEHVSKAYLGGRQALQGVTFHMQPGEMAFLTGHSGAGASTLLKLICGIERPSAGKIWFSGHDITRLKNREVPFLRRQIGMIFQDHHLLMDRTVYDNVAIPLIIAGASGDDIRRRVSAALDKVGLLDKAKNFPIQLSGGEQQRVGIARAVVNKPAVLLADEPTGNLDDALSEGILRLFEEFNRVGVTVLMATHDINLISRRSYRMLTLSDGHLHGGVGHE

In the case of `CNc1ccccc1C(=O)O[C@H]1[C@@H](O)[C@H](n2cnc3c(N)ncnc32)O[C@@H]1COP(=O)(O)OP(=O)(O)OP(=O)(O)O` [MANT-ATP], at FtsE (FtsEEc) [1], the MANT-ATP fluorescence binding result was “ATP binding affinity for FtsE^K41A, and it was found to be much lower than wildtype”. Also, at FtsE (FtsEEc) [2], the affinity, expressed as Kd, was 21.5 ± 2.2 nM.
